This note sets out measurements from US6849256B1, “Inhibition of pathogens by probiotic bacteria” (priority 1999, dated 2005).

For assay [1], the system named is Bacillus coagulans, subspecies Hammer (ATCC-31284). Description: Vitek machine-based antibiotic susceptibility testing of Bacillus coagulans. Format: cell-based.
For assay [2] the test system is unchanged. Description: Kirby-Bauer antibiotic susceptibility testing of Bacillus coagulans. Format: cell-based. The conditions noted are these: inhibition zone diameter (disk diffusion). (In general: A growth-free zone around the sample is the usual read-out of agar diffusion tests.)

Consider `O=C(N[C@H](CO)[C@H](O)c1ccc([N+](=O)[O-])cc1)C(Cl)Cl` [chloramphenicol], for which the “Susceptibility of Bacillus coagulans to the antibiotic, Vitek testing” value (“Susceptibility … Vitek testing” for short) in assay [1] (optical density of culture) is given as “Susceptible”. Take `CC1(C)S[C@@H]2[C@H](NC(=O)[C@H](N)c3ccccc3)C(=O)N2[C@H]1C(=O)O` [ampicillin]: the “Susceptibility of Bacillus coagulans to the antibiotic, Kirby-Bauer testing” value (“Susceptibility … Kirby-Bauer testing” for short) in assay [2] is on record as “Susceptible”.

For gentamicin, the “Susceptibility … Kirby-Bauer testing” value in assay [2] is on record as “Susceptible”. For the same compound, the “Susceptibility … Vitek testing” value in assay [1] (500 μg/ml) was “Susceptible”. As to `CO[C@H]1/C=C/O[C@@]2(C)Oc3c(C)c(O)c4c(O)c(c(/C=N/N5CCN(C)CC5)c(O)c4c3C2=O)NC(=O)/C(C)=C\C=C\[C@H](C)[C@H](O)[C@@H](C)[C@@H](O)[C@@H](C)[C@H](OC(C)=O)[C@@H]1C` [rifampin], in assay [2], the “Susceptibility … Kirby-Bauer testing” value was “Susceptible”. As to trimethoprim-sulfamethoxazole, the “Susceptibility … Kirby-Bauer testing” value in assay [2] is “Susceptible”. penicillin: the “Susceptibility … Vitek testing” value in assay [1] (optical density of culture) is given as “Susceptible”. On to `CC[C@H]1OC(=O)[C@H](C)[C@@H](O[C@H]2C[C@@](C)(OC)[C@@H](O)[C@H](C)O2)[C@H](C)[C@@H](O[C@@H]2O[C@H](C)C[C@H](N(C)C)[C@H]2O)[C@](C)(O)C[C@@H](C)C(=O)[C@H](C)[C@@H](O)[C@]1(C)O` [erythromycin], for which the “Susceptibility … Kirby-Bauer testing” value in assay [2] is “Susceptible”. Take `CCn1cc(C(=O)O)c(=O)c2cc(F)c(N3CCNCC3)cc21` [norfloxacin]: the “Susceptibility … Vitek testing” value in assay [1] (optical density of culture) was “Susceptible”. On to `CN[C@H](CC(C)C)C(=O)N[C@H]1C(=O)N[C@@H](CC(N)=O)C(=O)N[C@H]2C(=O)N[C@H]3C(=O)N[C@H](C(=O)N[C@H](C(=O)O)c4cc(O)cc(O)c4-c4cc3ccc4O)[C@H](O)c3ccc(c(Cl)c3)Oc3cc2cc(c3O[C@@H]2O[C@H](CO)[C@@H](O)[C@H](O)[C@H]2O[C@H]2C[C@](C)(N)[C@H](O)[C@H](C)O2)Oc2ccc(cc2Cl)[C@H]1O` [vancomycin], for which the “Susceptibility … Kirby-Bauer testing” value in assay [2] is “Susceptible”. Besides, in assay [1] (optical density of culture), the “Susceptibility … Vitek testing” value is listed as “Susceptible”. As to `[H]/N=C(/N)N[C@H]1[C@H](O)[C@@H](O)[C@H](O[C@@H]2O[C@@H](C)[C@](O)(C=O)[C@H]2O[C@@H]2O[C@@H](CO)[C@H](O)[C@@H](O)[C@@H]2NC)[C@@H](N/C(N)=N\[H])[C@@H]1O` [streptomycin], the “Susceptibility … Vitek testing” value in assay [1] (2,000 μg/ml) is reported as “Susceptible”. Regarding `Cc1onc(-c2ccccc2)c1C(=O)N[C@@H]1C(=O)N2[C@@H]1SC(C)(C)[C@@H]2C(=O)O` [oxacillin], the “Susceptibility … Kirby-Bauer testing” value in assay [2] is given as “Susceptible”. On the same count and under the same terms, next, `O=C(O)c1cn(C2CC2)c2cc(N3CCNCC3)c(F)cc2c1=O` [ciprofloxacin]: “Susceptible”.
